Test results published in patent US10392422B2, “Macrocyclic broad spectrum antibiotics” (priority 2014, dated 2019).
≈ marks a conversion by molar mass, not a printed value. Read-outs that look alike come from different tables or passages of the source.

Assays:
Assay in all cases: MIC, broth micro-dilution technique (CLSI)
[1] = tested on: MRSA COL (NRS100); format: cell-based, Staphylococcus aureus; conditions: Staphylococcus aureus, 22 h, read-out: MIC (μg/mL) (COL)
Summary of the method: (§1)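 Cation-adjusted MHB + 0.002% Tween-80; 10-point 2-fold series starting 64 μg/ml (modified protocol: 4 μg/mL). Final inoculum OD600 0.0005; 35° C, 22 h. MIC per CLSI M07-A8 broth microdilution.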

[2] = tested on: Methicillin Resistant Staphylococcus aureus strain USA 300 (NRS384); format: cell-based; conditions: Staphylococcus aureus, 22 h, read-out: MIC (μg/mL) S. aureus
Summary of the method: as §1

[3] = tested on: Escherichia coli MC4100 harboring the IMP4213; format: cell-based; conditions: Escherichia coli, 22 h, read-out: MIC (μg/mL) E. coli, Table 1 protocol: serial 2-fold dilutions starting from 64 μg/ml; 35° C., 22 hours
Summary of the method: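 MICs determined after 35 °C, 22 h incubation of bacteria (final OD600 0.0005) with 10-point 2-fold compound series. Series topped at 64 μg/ml in the standard protocol or 4 μg/mL in the modified one. Medium: cation-adjusted Mueller Hinton broth plus 0.002% Tween-80. E. coli MC4100 imp4213 has a permeabilized outer membrane.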

[4] = Table 1 protocol: serial 2-fold dilutions starting from 64 μg/ml, 35° C., 22 hours

Row | SMILES | MIC [1, 4] | MIC [2, 4] | MIC [3] | MIC [1] | MIC [2]
1 | CCCCCCCCCCNCCC(=O)N[C@@H](CCCCN)C(=O)N(C)[C@@H]1C(=O)N[C@@H](C)C(=O)N[C@H](C(=O)N[C@@H](C)C(=O)c2nnn[nH]2)Cc2ccc(O)c(c2)-c2cc1ccc2OCCN [Compound 193] | 0.13 µg/mL (≈ 0.141 µM) | 0.5 µg/mL (≈ 0.544 µM) | 8 µg/mL (≈ 8.7 µM) | – | –
2 | CC(NC(=O)[C@@H]1Cc2ccc(O)c(c2)-c2cc(ccc2O)[C@H](N(C)C(=O)[C@H](CCCCN)NC(=O)c2ccc(-c3ccc(Cl)cc3)cc2)C(=O)N[C@@H](C)C(=O)N1)C(=O)c1ncccn1 (stereo partly drawn) [Compound 194] | 4 µg/mL (≈ 4.5 µM) | 8 µg/mL (≈ 8.99 µM) | 8 µg/mL (≈ 8.99 µM) | – | –
3 | COCC(=O)[C@H](C)NC(=O)[C@@H]1Cc2ccc(O)c(c2)-c2cc(ccc2OCCN)[C@H](N(C)C(=O)[C@H](CCCCN)NC(=O)c2ccc(-c3ccc(Cl)cc3)cc2)C(=O)N[C@@H](C)C(=O)N1 [Compound 195] | 0.38 µg/mL (≈ 0.423 µM) | 2.8 µg/mL (≈ 3.12 µM) | 2 µg/mL (≈ 2.23 µM) | – | –
4 | CCCCCCCCCCNCCC(=O)N(C)[C@@H]1C(=O)N[C@@H](C)C(=O)N[C@H](C(=O)N[C@@H](C)C(C)=O)Cc2ccc(O)c(c2)-c2cc1ccc2O [Compound 196] | – | – | > 64 µg/mL | 1 µg/mL (≈ 1.44 µM) | 4 µg/mL (≈ 5.76 µM)
5 | C[C@@H]1NC(=O)[C@@H](N(C)C(=O)[C@H](CCCCN)NC(=O)c2ccc(-c3ccc(Cl)cc3)cc2)c2ccc(O)c(c2)-c2cc(ccc2O)C[C@@H](C(=O)N[C@@H](C)C(=O)N(C)[C@H](C)C(N)=O)NC1=O [Compound 197] | 3.9 µg/mL (≈ 4.28 µM) | 20 µg/mL (≈ 21.9 µM) | 32 µg/mL (≈ 35.1 µM) | – | –
6 | C[C@@H]1NC(=O)[C@@H](N(C)C(=O)[C@H](CCCCN)NC(=O)c2ccc(-c3ccc(Cl)cc3)cc2)c2ccc(O)c(c2)-c2cc(ccc2O)C[C@@H](C(=O)N[C@@H](C)C(=O)N(C)[C@@H](CO)C(N)=O)NC1=O [Compound 198] | 2 µg/mL (≈ 2.16 µM) | 13 µg/mL (≈ 14 µM) | 16 µg/mL (≈ 17.3 µM) | – | –
7 | C[C@@H]1NC(=O)[C@@H](N(C)C(=O)[C@H](CCCCN)NC(=O)c2ccc(-c3ccc(Cl)cc3)cc2)c2ccc(O)c(c2)-c2cc(ccc2O)C[C@@H](C(=O)N[C@@H](CO)C(=O)N(C)[C@@H](C)C(N)=O)NC1=O [Compound 199] | 2 µg/mL (≈ 2.16 µM) | 10 µg/mL (≈ 10.8 µM) | 64 µg/mL (≈ 69 µM) | – | –
8 | CCCCCCCCCCNCCC(=O)N[C@@H](CCCCN)C(=O)N(C)[C@@H]1C(=O)N[C@@H](C)C(=O)N[C@H](C(=O)N[C@@H](C)C(=O)COC(C)=O)Cc2ccc(O)c(c2)-c2cc1ccc2O [Compound 200] | 0.5 µg/mL (≈ 0.568 µM) | 2 µg/mL (≈ 2.27 µM) | 64 µg/mL (≈ 72.7 µM) | – | –
9 | CCCCCCCCCCNCCC(=O)N[C@@H](CCCCN)C(=O)N(C)[C@@H]1C(=O)N[C@@H](C)C(=O)N[C@H](C(=O)N[C@@H](C)C(=O)CO)Cc2ccc(O)c(c2)-c2cc1ccc2OCCN [Compound 201] | 0.063 µg/mL (≈ 0.0715 µM) | 0.35 µg/mL (≈ 0.397 µM) | 8 µg/mL (≈ 9.08 µM) | – | –
10 | CC(=O)[C@H](C)NC(=O)[C@@H]1Cc2ccc(O)c(c2)-c2cc(ccc2OCCCN)[C@H](N(C)C(=O)[C@H](CCCCN)NC(=O)c2ccc(-c3ccc(Cl)cc3)cc2)C(=O)N[C@@H](C)C(=O)N1 [Compound 202] | 0.5 µg/mL (≈ 0.567 µM) | 2.8 µg/mL (≈ 3.17 µM) | 8 µg/mL (≈ 9.07 µM) | – | –
11 | CNCCNCCOc1ccc2cc1-c1cc(ccc1O)C[C@@H](C(=O)N[C@@H](C)C(C)=O)NC(=O)[C@H](C)NC(=O)[C@H]2N(C)C(=O)[C@H](CCCCN)NC(=O)c1ccc(-c2ccc(Cl)cc2)cc1 [Compound 204] | 1 µg/mL (≈ 1.08 µM) | 11 µg/mL (≈ 11.9 µM) | 8 µg/mL (≈ 8.64 µM) | – | –
12 | CC(=O)[C@H](C)NC(=O)[C@@H]1Cc2ccc(O)c(c2)-c2cc(ccc2OCCNCC(=O)O)[C@H](N(C)C(=O)[C@H](CCCCN)NC(=O)c2ccc(-c3ccc(Cl)cc3)cc2)C(=O)N[C@@H](C)C(=O)N1 [Compound 205] | 6 µg/mL (≈ 6.48 µM) | 32 µg/mL (≈ 34.5 µM) | 32 µg/mL (≈ 34.5 µM) | – | –
13 | CNCCCNCCOc1ccc2cc1-c1cc(ccc1O)C[C@@H](C(=O)N[C@@H](C)C(C)=O)NC(=O)[C@H](C)NC(=O)[C@H]2N(C)C(=O)[C@H](CCCCN)NC(=O)c1ccc(-c2ccc(Cl)cc2)cc1 [Compound 206] | 0.19 µg/mL (≈ 0.202 µM) | 4 µg/mL (≈ 4.26 µM) | 4 µg/mL (≈ 4.26 µM) | – | –
14 | CC(=O)[C@H](C)NC(=O)[C@@H]1Cc2ccc(OCC(=O)O)c(c2)-c2cc(ccc2O)[C@H](N(C)C(=O)[C@H](CCCCN)NC(=O)c2ccc(-c3ccc(Cl)cc3)cc2)C(=O)N[C@@H](C)C(=O)N1 [Compound 207] | 6 µg/mL (≈ 6.79 µM) | 32 µg/mL (≈ 36.2 µM) | 32 µg/mL (≈ 36.2 µM) | – | –
15 | CC(=O)[C@H](C)NC(=O)[C@@H]1Cc2ccc(OCC(=O)O)c(c2)-c2cc(ccc2OCCN)[C@H](N(C)C(=O)[C@H](CCCCN)NC(=O)c2ccc(-c3ccc(Cl)cc3)cc2)C(=O)N[C@@H](C)C(=O)N1 [Compound 208] | 6 µg/mL (≈ 6.48 µM) | 23 µg/mL (≈ 24.8 µM) | 16 µg/mL (≈ 17.3 µM) | – | –
16 | CC(=O)[C@H](C)NC(=O)[C@@H]1Cc2ccc(OCCN)c(c2)-c2cc(ccc2OCCN)[C@H](N(C)C(=O)[C@H](CCCCN)NC(=O)c2ccc(-c3ccc(Cl)cc3)cc2)C(=O)N[C@@H](C)C(=O)N1 [Compound 209] | 0.13 µg/mL (≈ 0.143 µM) | 0.5 µg/mL (≈ 0.549 µM) | 4 µg/mL (≈ 4.39 µM) | – | –
17 | CC(=O)[C@H](C)NC(=O)[C@@H]1Cc2ccc(O)c(c2)-c2cc(cc(CN)c2O)[C@H](N(C)C(=O)[C@H](CCCCN)NC(=O)c2ccc(-c3ccccc3)cc2)C(=O)N[C@@H](C)C(=O)N1 [Compound 210] | 4 µg/mL (≈ 4.88 µM) | 32 µg/mL (≈ 39 µM) | 32 µg/mL (≈ 39 µM) | – | –
18 | C[C@@H]1NC(=O)[C@@H](N(C)C(=O)[C@H](CCCCN)NC(=O)c2ccc(-c3ccc(Cl)cc3)cc2)c2cc(c3oc(CN)cc3c2)-c2cc(ccc2O)C[C@@H](C(=O)O)NC1=O [Compound 211] | – | – | 2 µg/mL (≈ 2.47 µM) | 2 µg/mL (≈ 2.47 µM) | 11 µg/mL (≈ 13.6 µM)
19 | CC(=O)[C@H](C)NC(=O)[C@@H]1Cc2ccc(O)c(c2)-c2cc(cc3cc(CN)oc23)[C@H](N(C)C(=O)[C@H](CCCCN)NC(=O)c2ccc(-c3ccc(Cl)cc3)cc2)C(=O)N[C@@H](C)C(=O)N1 [Compound 212] | 0.5 µg/mL (≈ 0.569 µM) | 2.5 µg/mL (≈ 2.85 µM) | 5.7 µg/mL (≈ 6.49 µM) | – | –
20 | CC(=O)[C@H](C)NC(=O)[C@@H]1Cc2ccc(O)c(c2)-c2cc(cc(CCCN)c2OCCN)[C@H](N(C)C(=O)[C@H](CCCCN)NC(=O)c2ccc(-c3ccccc3)cc2)C(=O)N[C@@H](C)C(=O)N1 [Compound 213] | 2 µg/mL (≈ 2.24 µM) | 16 µg/mL (≈ 18 µM) | 4 µg/mL (≈ 4.49 µM) | – | –
21 | CCCCCCCCCCNCCS(=O)(=O)N[C@@H](CCCCN)C(=O)N(C)[C@@H]1C(=O)N[C@@H](C)C(=O)N[C@H](C(=O)O)Cc2ccc(O)c(c2)-c2cc1ccc2O [Compound 214] | – | – | 64 µg/mL (≈ 81.1 µM) | 0.75 µg/mL (≈ 0.951 µM) | 2.8 µg/mL (≈ 3.55 µM)
22 | CCCCCCCCCCNCCS(=O)(=O)N[C@@H](CCCCN)C(=O)N(C)[C@@H]1C(=O)N[C@@H](C)C(=O)N[C@H](C(=O)N[C@@H](C)C(=O)N2CCC[C@H]2C(N)=O)Cc2ccc(O)c(c2)-c2cc1ccc2O [Compound 215] | 0.25 µg/mL (≈ 0.261 µM) | 0.5 µg/mL (≈ 0.523 µM) | > 64 µg/mL | – | –
23 | CCCCCCCCCCNCCS(=O)(=O)N[C@@H](CCCCN)C(=O)N(C)[C@@H]1C(=O)N[C@@H](C)C(=O)N[C@H](C(=O)N[C@@H](C)C(C)=O)Cc2ccc(O)c(c2)-c2cc1ccc2OCCN [Compound 216] | 0.063 µg/mL (≈ 0.0699 µM) | 0.13 µg/mL (≈ 0.144 µM) | 64 µg/mL (≈ 71 µM) | – | –
24 | CCCCCCCCCNCCCS(=O)(=O)N[C@@H](CCCCN)C(=O)N(C)[C@@H]1C(=O)N[C@@H](C)C(=O)N[C@H](C(=O)N[C@@H](C)C(C)=O)Cc2ccc(O)c(c2)-c2cc1ccc2O [Compound 217] | 0.75 µg/mL (≈ 0.874 µM) | 2 µg/mL (≈ 2.33 µM) | > 64 µg/mL | – | –
25 | CCCCCCCCCCNCCS(=O)(=O)N[C@@H](CCN)C(=O)N(C)[C@@H]1C(=O)N[C@@H](C)C(=O)N[C@H](C(=O)N[C@@H](C)C(C)=O)Cc2ccc(O)c(c2)-c2cc1ccc2O [Compound 218] | – | – | > 64 µg/mL | 0.13 µg/mL (≈ 0.157 µM) | 0.35 µg/mL (≈ 0.422 µM)
26 | CCCCCCCCCCNCCS(=O)(=O)N[C@@H](CCCN)C(=O)N(C)[C@@H]1C(=O)N[C@@H](C)C(=O)N[C@H](C(=O)N[C@@H](C)C(C)=O)Cc2ccc(O)c(c2)-c2cc1ccc2O [Compound 219] | – | – | > 64 µg/mL | 0.13 µg/mL (≈ 0.154 µM) | 0.35 µg/mL (≈ 0.415 µM)
27 | CCCCCCCCCCCCS(=O)(=O)N[C@@H](CCCCN)C(=O)N(C)[C@@H]1C(=O)N[C@@H](C)C(=O)N[C@H](C(=O)O)Cc2ccc(O)c(c2)-c2cc1ccc2O [Compound 220] | – | – | 16 µg/mL (≈ 20.7 µM) | 0.33 µg/mL (≈ 0.426 µM) | 2 µg/mL (≈ 2.58 µM)
